Source: patent US7271278B2, “Application of chromium-amino acid complexes in the treatment of diabetes and other diseases” (The University of Wyoming, priority 2005, dated 2007)

Assay: Deoxyribose degradation assay for generation of hydroxyl radicals
Conditions: chromium picolinate 1.2 μM; Ferric-EDTA 100 μM; ascorbic acid and hydrogen peroxide 100 μM
Description: The potential of chromium compounds to generate hydroxyl radicals in vitro was assessed by the method reported previously (Halliwell et al. (1987) Anal. Biochem., 165:215-219). Briefly, a reaction mixture containing either chromium picolinate or Cr(pa)3, 2-deoxyribose (4 mM), ascorbic acid (100 μM) and hydrogen peroxide (100 μM) in potassium phosphate buffer (pH 7.4, 10 mM) was incubated at 37° C. for 30 minutes. An aliquot of the mixture was treated with 1% (w/v) thiobarbituric acid and 2.8% (w/v) trichloroacetic acid and heated at 90° C. for 10 minutes, rapidly cooled and the amount of chromogen formed in the sample was measured by its absorption at 532 nm. Ferric-EDTA (100 μM) was used as a positive control.

O=C([O-])CN(CCN(CC(=O)[O-])CC(=O)O)CC(=O)[O-].[Fe+3] [Ferric-EDTA, reference compound]
hydroxyl radical production over control / reagent blank: about 3.5 fold
